Measured values taken from patent publication US20140296146A1, “Thermostable Inhibitors of Activation of the Blood Clotting System Through Contact with Foreign Surfaces” (Synapse B.V., priority 2011, published 2014).

Experiments:
[1] = Retention of biological activity at room temperature and in boiling water; type: physicochemical; conditions: for biological activity after heating: 0.1 mM solution in closed ampoule in boiling water for 60 min
Protocol: (Example 7) This means that, unlike CTI, it can be added to citrate tubes that can be sterilized and used under clinical conditions. About 0.10 mg of TICA1 would be required per vacuum tube meant to take 10 ml of blood.

h-FXIIa = target: T1, h-FXIIa (Homo sapiens, UniProt P00748); test: Stability of CTI, PTI and TICA at RT and at 95° C., read as inhibition of h-FXIIa; type: physicochemical; conditions: for Residual activity / Calculated total I / Activity of FXIIa / Free FXIIa: inhibitor exposed 60 minutes to 95° C.; for Calculated total I / Activity of FXIIa / Free FXIIa: added CTI 8.1 nM, TICA1 306 nM; for Activity of FXIIa / Free FXIIa: total FXIIa 9.33 nM
T1 construct: purchased Enzyme Research Laboratories FXIIa 1212A
T1 sequence (P00748 373-615 limits assumed): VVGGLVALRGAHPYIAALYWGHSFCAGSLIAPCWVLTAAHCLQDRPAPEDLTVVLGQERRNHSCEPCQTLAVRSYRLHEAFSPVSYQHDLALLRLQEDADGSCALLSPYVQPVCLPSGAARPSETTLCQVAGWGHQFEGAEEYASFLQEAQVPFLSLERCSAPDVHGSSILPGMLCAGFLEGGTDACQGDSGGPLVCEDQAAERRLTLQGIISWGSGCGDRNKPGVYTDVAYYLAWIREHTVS
T1 sequence (P00748 20-372 partner limits assumed): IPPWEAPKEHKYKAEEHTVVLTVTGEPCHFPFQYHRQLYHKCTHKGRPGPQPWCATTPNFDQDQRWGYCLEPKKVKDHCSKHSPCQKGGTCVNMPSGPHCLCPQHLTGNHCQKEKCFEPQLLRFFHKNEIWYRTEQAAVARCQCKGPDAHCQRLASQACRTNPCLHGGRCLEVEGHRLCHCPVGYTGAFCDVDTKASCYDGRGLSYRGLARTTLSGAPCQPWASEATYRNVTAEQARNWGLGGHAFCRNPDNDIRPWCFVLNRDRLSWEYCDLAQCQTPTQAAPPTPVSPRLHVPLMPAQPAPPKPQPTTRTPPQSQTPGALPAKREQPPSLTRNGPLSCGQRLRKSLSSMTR
Protocol: Materials • S2302 From Chromogenic, lot # N0398718 SEQ0860, exp. date 2012-07. Water added on 7 Oct. […] On 3 Aug. […] Product code FXIIa 1212A, lot #FXIIa 2520PL. Bottle with 0.5 mg was reconstituted with 370 μl pure water. […] Buffer 4 mM NaAc, 150 mM NaCl (pH 5.3). Preparation was divided into 20 μl amounts and frozen at −80° C. • Hepes735 140 mM NaCl, 20 mM Hepes, 0.02% NaN3 (pH 7.35). • BSA5 Hepes735+5 mg/ml BSA. • CTI Prepared on 17 Dec. 2004, 0.141 mg/ml, i.e. 0.141/12028=11.7*10^−6 M (11.7 μM). One portion was thawed and divided into 3 parts. […]
Stock FXIIa was diluted 700× in BSA5. The inhibitor was diluted in BSA5 as indicated. Wells contained 70 μl diluted FXIIa (5 nM final), 70 μl inhibitor and 20 μl S2302 (475 or 462.5 μM final). The reaction was started after 5 min heating on the heating plate with S2302. Filters 405 nm and 490 nm reference. Found ΔmA/min was multiplied by 2.14 to get the figure for a 1 cm path.
The residual activity (V) was fitted against the inhibitor concentration with equation:
V=(E+(sqrt(Ê2+2*E*(Ki−I)+Î2+2*I*Ki+Kî2)−E−I−Ki)/2)*kcat*S/(Km+S)
in which E=[FXIIa], Ki is the dissociation constant, I=[Inhibitor], kcat and Km are Michaelis constants and S=[S2302].
To calculate the concentration of I the equation I=x·(x−E−Ki)/(x−E) was used. In this equation is I the calculated inhibitor concentration, x=the residual activity of FXIIa (free FXIIa), E the total FXIIa concentration (=9.33 nM), and Ki the dissociation or inhibitor constant.

contact activation = test: Thrombin generation (CAT) in platelet poor plasma contact activated with kaolin; type: biochemical, human; conditions: for 4 × lag-time (ng/ml) / 4 × lag-time (μM): concentration that prolongs clotting time of kaolin contact activated plasma four times
Protocol: Thrombin generation was carried out according to WO2003/093831.
Following a double centrifugation at 2500×g for 15 min at room temperature, platelet poor plasma (PPP) was collected from the upper half volume of plasma supernatant, quick frozen and stored at −80° C. The absence of platelet and leucocyte in PPP was checked with an ADVIA 120 counter (Bayer Diagnostics, NY, USA).
Recombinant human tissue factor Innovin® was obtained from Dade Behring (Marburg, Germany) and used at a final concentration of 0.5 pM in PRP and 1 or 5 pM in PPP samples. The phospholipid vesicles used at a final concentration of […] were obtained from Avanti Polar Lipids (Alabaster, Ala., USA) and consisted of 20 mol % phosphatidylserine (PS), 20 mol % phosphatidylethanolamine (PE) and 60 mol % phosphatidylcholine (PC) and were prepared by extrusion method (9,10). Kaolin light (hydrated aluminium silicate) was obtained from Baker Harrison ltd, (Ilford, UK).
Hepes-buffered saline contained 20 mM Hepes (Sigma Aldrich, l'Ile d'Abeau Chesnes, France), 140 mM NaCl and 5 mg/mL bovine serum albumin (BSA) (Euromedex, Souffelweyersheim, France), pH 7.35. This buffer was stored at −20° C. until use. A fresh mixture of fluorogenic substrate and CaCl2 was prepared before each experiment. Fluorogenic substrate, Z-Gly-Gly-Arg-AMC, was obtained from Bachem (Bubendorf, Switzerland). The mixture of fluorogenic substrate 2.5 mM and CaCl2 0.1 M was prepared using buffer containing Hepes 20 mM and 60 mg/mL BSA, pH 7.35. The Calibrator with the activity of 600 nM human thrombin was obtained from Thrombinoscope BV (Maastricht, The Netherlands). Transparent, round bottom Greiner microtiter plates (Greiner ref 65204, Poitiers, France) were used.
Thrombin generation was measured using Calibrated Automated Thrombography (CAT) according to the methodology of WO2003/093831 and a 96-well plate fluorometer (Fluoroscan Ascent Reader, Thermolab systems OY, Helsinki, Finland) equipped with a 390/460 nm filter set. Briefly, 80 μL of plasma is dispensed into the wells of round-bottom 96 well-microtiter plates. 20 μL of a mixture containing tissue factor and phospholipids is added to the PPP sample; alternatively, in order to obtain contact activation, the citrated plasma is preincubated for at least 10 min with 1 mg/ml of Kaolin light. The starting reagent (20 μL per well) contains fluorogenic substrate and CaCl2. […] The most important parameters that can be derived from CAT are lag time, endogenous thrombin potential corresponding to the area under the CAT curve, peak height of thrombin and time to peak.

[2] = contact activation of PPP by kaolin
[3] = Kaolin, CTI 0.72 μM (8.64 μg/ml)

## CC[C@H](C)[C@@H]1NC(=O)[C@H](CCCNC(=N)N)NC(=O)[C@@H]2CCCN2C(=O)[C@@H](NC(=O)[C@@H](NC(=O)[C@@H](N)CCCNC(=N)N)C(C)C)CSSC[C@@H]2NC(=O)[C@H](CCC(=O)O)NC(=O)[C@H](C)NC(=O)[C@H](CC(C)C)NC(=O)[C@@H]3CSSC[C@@H](C(=O)NCC(=O)O)NC(=O)[C@H](Cc4ccc(O)cc4)NC(=O)CNC(=O)[C@H](Cc4c[nH]cn4)NC(=O)[C@H](CCC(=O)O)NC(=O)[C@H](CC(C)C)NC(=O)[C@H](CSSC[C@H](NC(=O)[C@H](CCCCN)NC(=O)[C@H](CCSC)NC(=O)[C@H](CC(C)C)NC1=O)C(=O)N[C@@H](CCCCN)C(=O)N[C@@H](CCCCN)C(=O)N[C@@H](CC(=O)O)C(=O)N[C@@H](CO)C(=O)N[C@@H](CC(=O)O)C(=O)N3)NC(=O)[C@H](C(C)C)NC2=O [TICA1]
[1]
  biological activity after heating: does not affect its biological activity
[1]; left for weeks at room temperature
  stability at room temperature: without loosing activity
h-FXIIa; (Ki) (nM), inhibitor 30 min 95° C., h-FXIIa 5.01 nM
  Ki: 24 nM
h-FXIIa; inhibitor 30 min 95° C.
  Res. Act. (%): 94%
h-FXIIa; inhibitor at RT during 72 hrs
  Res. Act. (%): 102%
h-FXIIa
  Residual activity: 81.7%
  Calculated total I: 250 nM
  Activity of FXIIa: 33.5 ± 1.78 mA/min
  Free FXIIa: 3.93 nM
h-FXIIa; inhibitor kept at −80° C.
  Res. Act. (%): 100%
Contact activation; FIG. 1
  effect on lag time of thrombin generation triggered by contact activation: prolong the lag time
Contact activation; PPP incubated with kaolin, 0.94 to 4.6 μM
  inhibition of contact activation of PPP: dose-dependent inhibition
Contact activation; After heating
  4 × lag-time (ng/ml): 7.5 ng/mL
  4 × lag-time (μM): 2.3 µM
Contact activation; Before heating
  4 × lag-time (ng/ml): 7.8 ng/mL
  4 × lag-time (μM): 2.4 µM
Contact activation; [2]
  potency compared with CTI on a molar basis: ~2.5 times less potent
  potency compared with CTI on a weight basis: equipotent

B1: Corn trypsin inhibitor (other, UniProt P01088 29-138, looked up)
chain: SAGTSCVPGWAIPHNPLPSCRWYVTSRTCGIGPRLPWPELKRRCCRELADIPAYCRCTALSILMDGAIPPGPDAQLEGRLEDLPGCPREVQRGFAATLVTEAECNLATIS
notes: also called CTI
[1]
  biological activity after heating: significantly inactivated
h-FXIIa
  Residual activity: 29.3%
  Calculated total I: 2.37 nM
  Activity of FXIIa: 66.3 ± 1.32 mA/min
  Free FXIIa: 7.77 nM
Contact activation; [3]
  ETP: 1116
  Lag-time: 18.62
  Peak: 385
  ttPeak: 20.06
